Results published in patent US7297700B2, “Bicycloheteroaryl compounds as P2X7 modulators and uses thereof” (Renovis, Inc., priority 2005, dated 2007).

Test system: IL-1β release from THP-1 cells
Assay: IL-1β Release Assay (Alternate Method), THP-1 cells
Assay type: cell-based, human
Conditions: Homo sapiens, THP-1, read-out: IL-1β % inhibition
Procedure, shortened: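 THP-1 cells differentiated 16 h with 100 ng/mL LPS plus 100 ng/mL IFN-γ, reprimed 2 h with 100 ng/mL LPS, pretreated 30 min with compound, then challenged 45 min with 250 uM BzATP (final). Supernatant IL-1β quantified by ELISA; percent inhibition from background-adjusted levels versus untreated cells.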

Question: For `O=C(CC12CC3CC(CC(C3)C1)C2)Nc1ncnc2c1CCN(CCCO)C2` [Compound 19, 2-adamantan-1-yl-N-[7-(3-hydroxy-propyl)-5,6,7,8-tetrahydro-pyrido[3,4-d]pyrimidin-4-yl]-acetamide], which inhibition at 0.3 µM is on record?
Answer: 0 to 25%

Same assay, conditions: at 0.3 μM; THP-1 cells

Question: For `CC(=O)N1CCC(C(=O)N2CCc3c(ncnc3NC(=O)CC34CC5CC(CC(C5)C3)C4)C2)CC1` [Compound 295], which IL-1β % inhibition is on record?
Answer: + (compound exhibited 0-25% inhibition at 0.3 μM)

Question: `O=C(NCCc1ccccc1Cl)c1ncnc2c1CCN(Cc1ccccc1)C2` [Compound 1] was tested. Which IL-1β % inhibition did it give?
Answer: + (compound exhibited 0-25% inhibition at 0.3 μM)

Question: With `O=C(CC12CC3CC(CC(C3)C1)C2)Nc1ncnc2c1CCN(C(=O)c1ccccc1F)C2` [Compound 280] as the compound, how does the IL-1β % inhibition read?
Answer: +++ (compound exhibited 50-75% inhibition at 0.3 μM)

Question: Which IL-1β % inhibition does the source give for `O=C(NCC1CCCCC1)c1ncnc2c1CCN(Cc1ccccc1)C2` [Compound 4] here?
Answer: + (compound exhibited 0-25% inhibition at 0.3 μM)

Question: `COc1ccccc1CCC(=O)Nc1ncnc2c1CCN(Cc1c[nH]cn1)C2` [Compound 135] was tested. Which IL-1β % inhibition did it give?
Answer: + (compound exhibited 0-25% inhibition at 0.3 μM)

Question: `O=C(NCC1CCCCC1)c1ncnc2c1CCN(Cc1cccc(Cl)c1)C2` [Compound 53] was tested. Which IL-1β % inhibition did it give?
Answer: + (compound exhibited 0-25% inhibition at 0.3 μM)

Question: With `CN1CCc2c(ncnc2NC(=O)CC2CCCCC2)C1` [Compound 26] as the compound, how does the IL-1β % inhibition read?
Answer: +++ (compound exhibited 50-75% inhibition at 0.3 μM)

Question: For `O=C(CC12CC3CC(CC(C3)C1)C2)Nc1ncnc2c1CCN(Cc1ccc(F)cc1F)C2` [Compound 47], which IL-1β % inhibition is on record?
Answer: ++++ (compound exhibited 75% or greater inhibition at 0.3 μM)

Question: With `CS(=O)(=O)c1ccc(CN2CCc3c(ncnc3NC(=O)CC34CC5CC(CC(C5)C3)C4)C2)cc1` [Compound 15] as the compound, how does the IL-1β % inhibition read?
Answer: + (compound exhibited 0-25% inhibition at 0.3 μM)

Question: With `CC12CC3CC(C)(C1)CC(CC(=O)Nc1ncnc4c1CCN(C(=O)CC1CCCC1)C4)(C3)C2` [Compound 384] as the compound, how does the IL-1β % inhibition read?
Answer: ++ (compound exhibited 25-50% inhibition at 0.3 μM)

Question: How did the IL-1β % inhibition turn out when `O=C(CC12CC3CC(CC(C3)C1)C2)Nc1ncnc2c1CCN(C(=O)c1ccno1)C2` [Compound 296] was run?
Answer: +++ (compound exhibited 50-75% inhibition at 0.3 μM)

Question: With `CC(C)CC(=O)N1CCc2c(ncnc2NC(=O)CC23CC4CC(CC(C4)C2)C3)C1` [Compound 255] as the compound, how does the IL-1β % inhibition read?
Answer: ++ (compound exhibited 25-50% inhibition at 0.3 μM)

Question: How did the IL-1β % inhibition turn out when `COc1ccccc1CCC(=O)Nc1ncnc2c1CCNC2` [Compound 25] was run?
Answer: + (compound exhibited 0-25% inhibition at 0.3 μM)

Question: For `O=C(CC12CC3CC(CC(C3)C1)C2)Nc1ncnc2c1CCN(S(=O)(=O)c1cc(C(F)(F)F)ccc1Cl)C2` [Compound 181], which IL-1β % inhibition is on record?
Answer: ++ (compound exhibited 25-50% inhibition at 0.3 μM)

Question: For `CC12CC3CC(C)(C1)CC(CC(=O)Nc1ncnc4c1CCN(S(=O)(=O)c1cccc(F)c1F)C4)(C3)C2` [Compound 381], which IL-1β % inhibition is on record?
Answer: + (compound exhibited 0-25% inhibition at 0.3 μM)

Question: Which IL-1β % inhibition does the source give for `O=C(CC12CC3CC(CC(C3)C1)C2)Nc1ncnc2c1CCN(S(=O)(=O)c1cc(Cl)ccc1Cl)C2` [Compound 204] here?
Answer: + (compound exhibited 0-25% inhibition at 0.3 μM)

Question: Which IL-1β % inhibition does the source give for `COc1cccc(S(=O)(=O)N2CCc3c(ncnc3NC(=O)CC34CC5CC(CC(C5)C3)C4)C2)c1` [Compound 162] here?
Answer: + (compound exhibited 0-25% inhibition at 0.3 μM)

Question: `N#Cc1ccc(S(=O)(=O)N2CCc3c(ncnc3NC(=O)CC34CC5CC(CC(C5)C3)C4)C2)cc1` [Compound 167] was tested. Which IL-1β % inhibition did it give?
Answer: ++ (compound exhibited 25-50% inhibition at 0.3 μM)

Question: Which IL-1β % inhibition does the source give for `O=C(CC12CC3CC(CC(C3)C1)C2)Nc1ncnc2c1CCN(C(=O)c1c(F)cccc1F)C2` [Compound 247] here?
Answer: ++++ (compound exhibited 75% or greater inhibition at 0.3 μM)

Question: For `COc1ccc(C)cc1S(=O)(=O)N1CCc2c(ncnc2NC(=O)CC23CC4CC(CC(C4)C2)C3)C1` [Compound 214], which IL-1β % inhibition is on record?
Answer: + (compound exhibited 0-25% inhibition at 0.3 μM)

Question: For `O=C(CC12CC3CC(CC(C3)C1)C2)Nc1ncnc2c1CCN(Cc1ccc(OC(F)F)cc1)C2` [Compound 78], which IL-1β % inhibition is on record?
Answer: + (compound exhibited 0-25% inhibition at 0.3 μM)

Question: How did the IL-1β % inhibition turn out when `COc1ccc(CN2CCc3c(ncnc3C(=O)NCC3CCCCC3)C2)cc1` [Compound 54] was run?
Answer: + (compound exhibited 0-25% inhibition at 0.3 μM)

Question: How did the IL-1β % inhibition turn out when `Cc1ccc(S(=O)(=O)N2CCc3c(ncnc3NC(=O)CC34CC5CC(CC(C5)C3)C4)C2)cc1Cl` [Compound 207] was run?
Answer: +++ (compound exhibited 50-75% inhibition at 0.3 μM)

Question: `COc1cc(CN2CCc3c(ncnc3NC(=O)CC34CC5CC(CC(C5)C3)C4)C2)ccc1F` [Compound 103] was tested. Which IL-1β % inhibition did it give?
Answer: + (compound exhibited 0-25% inhibition at 0.3 μM)

Question: Which IL-1β % inhibition does the source give for `O=C(CC12CC3CC(CC(C3)C1)C2)Nc1ncnc2c1CCN(Cc1c[nH]cn1)C2` [Compound 82] here?
Answer: +++ (compound exhibited 50-75% inhibition at 0.3 μM)

Question: `O=C(CC1CCCCCC1)Nc1ncnc2c1CCN(CC1CCCC1)C2` [Compound 128] was tested. Which IL-1β % inhibition did it give?
Answer: + (compound exhibited 0-25% inhibition at 0.3 μM)

Question: How did the IL-1β % inhibition turn out when `Cc1cc(C)cc(S(=O)(=O)N2CCc3c(ncnc3NC(=O)CC34CC5CC(CC(C5)C3)C4)C2)c1` [Compound 217] was run?
Answer: + (compound exhibited 0-25% inhibition at 0.3 μM)

Question: For `O=C(CC12CC3CC(CC(C3)C1)C2)Nc1ncnc2c1CCN(S(=O)(=O)c1cc(Cl)cc(Cl)c1)C2` [Compound 208], which IL-1β % inhibition is on record?
Answer: +++ (compound exhibited 50-75% inhibition at 0.3 μM)

Question: `COCC(=O)N1CCc2c(ncnc2NC(=O)CC23CC4CC(CC(C4)C2)C3)C1` [Compound 240] was tested. Which IL-1β % inhibition did it give?
Answer: + (compound exhibited 0-25% inhibition at 0.3 μM)

Question: `CC(C)(C)C(=O)N1CCc2c(ncnc2NC(=O)CC23CC4CC(CC(C4)C2)C3)C1` [Compound 252] was tested. Which IL-1β % inhibition did it give?
Answer: ++ (compound exhibited 25-50% inhibition at 0.3 μM)

Question: Which IL-1β % inhibition does the source give for `O=C(CC12CC3CC(CC(C3)C1)C2)Nc1ncnc2c1CCN(S(=O)(=O)c1ccc(Oc3ccccn3)cc1)C2` [Compound 172] here?
Answer: +++ (compound exhibited 50-75% inhibition at 0.3 μM)

Question: Which IL-1β % inhibition does the source give for `O=C(CC1CCCCCC1)Nc1ncnc2c1CCN(Cc1cccnc1)C2` [Compound 93] here?
Answer: + (compound exhibited 0-25% inhibition at 0.3 μM)

Question: Which IL-1β % inhibition does the source give for `O=C(CC12CC3CC(CC(C3)C1)C2)Nc1ncnc2c1CCN(S(=O)(=O)c1ccc(Oc3cccnc3)cc1)C2` [Compound 174] here?
Answer: ++++ (compound exhibited 75% or greater inhibition at 0.3 μM)

Question: With `O=C(CC12CC3CC(CC(C3)C1)C2)Nc1ncnc2c1CCN(C(=O)c1cc(C(F)(F)F)ccc1Cl)C2` [Compound 271] as the compound, how does the IL-1β % inhibition read?
Answer: ++++ (compound exhibited 75% or greater inhibition at 0.3 μM)

Question: For `Cc1cc(CN2CCc3c(ncnc3NC(=O)CC34CC5CC(CC(C5)C3)C4)C2)ccc1F` [Compound 86], which IL-1β % inhibition is on record?
Answer: ++ (compound exhibited 25-50% inhibition at 0.3 μM)

Question: `Cc1ccc(C(=O)N2CCc3c(ncnc3NC(=O)CC34CC5CC(CC(C5)C3)C4)C2)cc1` [Compound 291] was tested. Which IL-1β % inhibition did it give?
Answer: ++++ (compound exhibited 75% or greater inhibition at 0.3 μM)

Question: `O=C(CC12CC3CC(CC(C3)C1)C2)Nc1ncnc2c1CCN(C(=O)c1c(F)cccc1Cl)C2` [Compound 272] was tested. Which IL-1β % inhibition did it give?
Answer: ++++ (compound exhibited 75% or greater inhibition at 0.3 μM)

Question: For `Cc1ccccc1CN1CCc2c(ncnc2C(=O)NCC23CC4CC(CC(C4)C2)C3)C1` [Compound 336], which IL-1β % inhibition is on record?
Answer: ++++ (compound exhibited 75% or greater inhibition at 0.3 μM)

Same assay, conditions: at 0.3 μM; THP-1 cells, BzATP-stimulated

Question: Which IL-1β % inhibition does the source give for `COc1ccc(-c2ccc(S(=O)(=O)N3CCc4c(ncnc4NC(=O)C45CC6CC(CC(C6)C4)C5)C3)cc2)cc1` [Compound 512] here?
Answer: ++ (compound exhibited 25-50% inhibition at 0.3 μM)

Question: How did the IL-1β % inhibition turn out when `O=C(Nc1ncnc2c1CCN(S(=O)(=O)Cc1ccc(C(F)(F)F)cc1)C2)C12CC3CC(CC(C3)C1)C2` [Compound 516] was run?
Answer: ++ (compound exhibited 25-50% inhibition at 0.3 μM)

Question: For `O=C(c1ccc2ccccc2n1)N1CCc2c(ncnc2NC(=O)C23CC4CC(CC(C4)C2)C3)C1` [Compound 471], which IL-1β % inhibition is on record?
Answer: ++ (compound exhibited 25-50% inhibition at 0.3 μM)

Question: With `O=C(c1ccc(C(F)(F)F)cc1)N1CCc2c(ncnc2NC(=O)C23CC4CC(CC(C4)C2)C3)C1` [Compound 415] as the compound, how does the IL-1β % inhibition read?
Answer: + (compound exhibited 0-25% inhibition at 0.3 μM)

Question: For `O=C(Nc1ncnc2c1CCN(Cc1cccc(F)c1)C2)C12CC3CC(CC(C3)C1)C2` [Compound 605], which IL-1β % inhibition is on record?
Answer: + (compound exhibited 0-25% inhibition at 0.3 μM)

Question: Which IL-1β % inhibition does the source give for `O=C(Nc1ncnc2c1CCN(Cc1cc3c(cc1Cl)OCO3)C2)C12CC3CC(CC(C3)C1)C2` [Compound 599] here?
Answer: + (compound exhibited 0-25% inhibition at 0.3 μM)

Question: With `O=C(Nc1ncnc2c1CCN(CC1CCCC1)C2)C12CC3CC(CC(C3)C1)C2` [Compound 619] as the compound, how does the IL-1β % inhibition read?
Answer: + (compound exhibited 0-25% inhibition at 0.3 μM)

Question: With `Cc1nn(C)c(C)c1S(=O)(=O)N1CCc2c(ncnc2NC(=O)C23CC4CC(CC(C4)C2)C3)C1` [Compound 531] as the compound, how does the IL-1β % inhibition read?
Answer: ++ (compound exhibited 25-50% inhibition at 0.3 μM)

Question: For `COc1ccc(CN2CCc3c(ncnc3NC(=O)C34CC5CC(CC(C5)C3)C4)C2)cc1O` [Compound 593], which IL-1β % inhibition is on record?
Answer: + (compound exhibited 0-25% inhibition at 0.3 μM)

Question: `O=C(c1cc(F)ccc1F)N1CCc2c(ncnc2NC(=O)C23CC4CC(CC(C4)C2)C3)C1` [Compound 451] was tested. Which IL-1β % inhibition did it give?
Answer: + (compound exhibited 0-25% inhibition at 0.3 μM)

Question: Which IL-1β % inhibition does the source give for `O=C(Nc1ncnc2c1CCN(S(=O)(=O)c1cc(F)ccc1F)C2)C12CC3CC(CC(C3)C1)C2` [Compound 537] here?
Answer: ++ (compound exhibited 25-50% inhibition at 0.3 μM)

Question: Which IL-1β % inhibition does the source give for `O=C(c1cc(F)cc(C(F)(F)F)c1)N1CCc2c(ncnc2NC(=O)C23CC4CC(CC(C4)C2)C3)C1` [Compound 439] here?
Answer: ++ (compound exhibited 25-50% inhibition at 0.3 μM)

Question: For `O=C(C1COc2ccccc2C1)N1CCc2c(ncnc2NC(=O)C23CC4CC(CC(C4)C2)C3)C1` (racemic) [Compound 477], which IL-1β % inhibition is on record?
Answer: ++ (compound exhibited 25-50% inhibition at 0.3 μM)

Question: With `O=C(Nc1ncnc2c1CCN(S(=O)(=O)c1cccc(C(F)(F)F)c1)C2)C12CC3CC(CC(C3)C1)C2` [Compound 492] as the compound, how does the IL-1β % inhibition read?
Answer: +++ (compound exhibited 50-75% inhibition at 0.3 μM)

Question: How did the IL-1β % inhibition turn out when `O=C(Nc1ncnc2c1CCN(Cc1ccc(F)cc1)C2)C12CC3CC(CC(C3)C1)C2` [Compound 607] was run?
Answer: ++++ (compound exhibited 75% or greater inhibition at 0.3 μM)
